Experimental data published in patent publication US20230212124A1, “SMALL-MOLECULE INHIBITORS OF THE FRS2-FGFR INTERACTION” (UNIVERSITÄT ZÜRICH, priority 2020, published 2023).

Columns and labels:
[1] = test system: FGFR-driven cancer cell lines; test: Cell titer glo assay; assay type: cell-based; details: all the FGFR-driven cancer cell lines tested
Experimental: The metabolic activity and the proliferation of the cells were determined using the Cell Titer glo assay from Promega according to the manufacturer's instructions. In brief, 250 cells/100 μl/per well (for up to 72 h incubation) were seeded in Greiner Bio-One p-clear 384 well plates (655090, Greiner Bio-One) and incubated overnight at 37° C. The old media was then replaced with fresh serum-free media and the cells were treated with BGJ398 or F3.14 till the desired time point. Following appropriate incubation for each timepoint, 10 μl of the Cell titer glo reagent was added to each well (final concentration of cell titer glo reagent per well is 1:10) and incubated at 37° C. for 30 minutes. The luminescence was then measured with a signal integration time of 0.5 to 1 second per well.

[2] = target: T1, FRS2 (Homo sapiens, UniProt Q8WU20); test: Biophysical binding assays (nanoDSF, MST, NMR); details: MST and NMR analysis
T1 construct: 6xHis
T1 sequence (Q8WU20 1-508): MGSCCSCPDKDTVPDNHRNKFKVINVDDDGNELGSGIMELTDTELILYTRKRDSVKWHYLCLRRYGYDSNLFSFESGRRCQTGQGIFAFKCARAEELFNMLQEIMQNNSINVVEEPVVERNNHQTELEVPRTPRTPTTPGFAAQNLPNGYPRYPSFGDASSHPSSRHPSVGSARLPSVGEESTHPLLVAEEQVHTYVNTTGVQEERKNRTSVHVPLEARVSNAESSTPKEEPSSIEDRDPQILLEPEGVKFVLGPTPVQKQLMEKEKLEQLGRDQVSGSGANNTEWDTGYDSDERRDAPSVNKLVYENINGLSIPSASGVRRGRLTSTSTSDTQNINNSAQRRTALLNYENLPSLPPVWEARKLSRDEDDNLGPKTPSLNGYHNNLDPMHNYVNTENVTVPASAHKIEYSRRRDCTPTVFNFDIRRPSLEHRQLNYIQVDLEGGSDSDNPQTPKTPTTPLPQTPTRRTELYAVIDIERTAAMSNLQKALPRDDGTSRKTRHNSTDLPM
Experimental: Nano Differential Scanning Fluorimetry (nanoDSF)
Purified FRS2 protein tagged with 6× Histidine residues and Guanine nucleotide-binding protein subunit beta (GB1) was diluted in the protein buffer (100 mM sodium phosphate, 50 mM NaCl, 0.5 mM EDTA, 50 mM arginine, 1 mM TCEP, pH 7.0) to final concentration of 30 μM. The compounds were dissolved in 100% at 50 or 100 mM and further diluted to 1 mM with a final concentration of 100% DMSO. Compound and protein were mixed at 1:1 ration yielding final concentrations of 15 μM and 500 μM for the compounds. The mixture was incubated at room temperature for 15 minutes before measurement. The measurement was performed on a Prometheus system in high sensitivity capillaries. Samples were subjected to a temperature gradient of 20 to 95° C. with 1° C./min intervals.
Microscale Thermophoresis (MST)
Purified FRS2 protein tagged with 6× Histidine residues and Guanine nucleotide-binding protein subunit beta (GB1) was labelled with 2nd generation BLUE-NHS dye. The protein was labelled at a final concentration of 20 µM with 60 μM dye. The labelling was performed in the protein buffer without arginine supplementation. Arginine was re-buffered to protein's buffer post-labelling. The compounds were dissolved in 100% at 50 or 100 mM and further diluted to 1 mM with a final concentration of 100% DMSO. […] The interaction was measured in two independent duplicates.

[3] = In vitro ADMET table: potency; assay type: cell-based
Description: (§1) FIG. 16 Table showing the in vitro absorption, distribution, metabolism, elimination and toxicity (ADMET) properties of F3.14.

[4] = In vitro ADMET: metabolic stability (intrinsic clearance, t½); assay type: in vitro ADME
Description: as §1

[5] = In vivo pharmacokinetics; details: mice, intravenous
Experimental: 3 Healthy non-SCID mice were intravenously treated with F3.14—Blood samples were collected at 2, 4, 6, 8 and 24 hours after treatment. Serum from the collected blood samples were isolated and the concentration of F3.14 in the serum was measure to determine the intrinsic clearance of F3.14.

[6] = In vitro ADMET: semi-thermodynamic solubility; assay type: physicochemical; details: aqueous solutions
Description: as §1

[7] = In vitro ADMET: permeability (efflux ratio); assay type: in vitro ADME
Description: as §1

[8] = test system: FGFR-driven cancer cell lines; test: Spheroid invasion assay; assay type: cell-based; details: all the FGFR-driven cancer cell lines tested
Experimental: Spheroid Invasion Assay (S/A) and Automated Cell Dissemination Counter (aCDc)
1000 cells/100 μl per well were seeded in cell-repellent 96 well microplate (650790, Greiner Bio-one). The cells were incubated at 37° C. overnight to form spheroids. 70 μl of the medium were removed from each well, and remaining medium with spheroid overlaid with 2.5% bovine collagen 1. Following the polymerization of collagen, fresh medium was added to the cells and treated with growth factors and/or with inhibitors. The cells were allowed to invade the collagen matrix for 24 h, after which they were fixed with 4% PFA and stained with Hoechst. Images were acquired on an Axio Observer 2 mot plus fluorescence microscope (Zeiss, Munic, Germany) using a 5×objective. Cell invasion is determined as the average of the distance invaded by the cells from the centre of the spheroid as determined using automated cell dissemination counter (aCDc) with our cell dissemination counter software aSDlcs (Kumar et al., Sci Rep 5, 15338 (2015)).

[9] = In vitro ADMET: toxicity (MTT); assay type: cell-based
Description: as §1

[10] = test system: FGF signaling pathway; test: Immunoblotting / pathway analysis; assay type: cell-based
Experimental: (§2) Cancer cells were treated with bFGF (100 ng/ml) and/or with compounds and lysed using Radioimmunoprecipitation assay (RIPA) buffer. RIPA buffer lysates were resolved by SDS-PAGE and transferred to a nitrocellulose membrane using a transfer apparatus according to the manufacturer's instructions (Bio-Rad). Membranes were probed with primary antibodies against phospho-FRS2, FRS2, ERK1/2, phospho-ERK1/2, AKT, phosphor-AKT, phospho-PKC and tubulin. HRP-linked secondary antibodies (1:5000) were used to detect the primary antibodies. Chemiluminescence detection was performed using ChemiDoc Touch Gel and Western Blot imaging system (BioRad).
as §2, with “RIPA” for “Cancer cells were treated with bFGF (100 ng/ml) and/or with compounds and lysed using Radioimmunoprecipitation assay (RIPA) buffer. RIPA”, “buffer FGFR-driven cell” for “buffer”, “phospho-AKT,” for “phosphor-AKT,”, “(BioRad). Integrated density of Immuno-reactive bands was quantified using Adobe Photoshop CS5.” for “(BioRad).”

## CC(C)C[C@@H](CO)NCc1cc(O)c2cc(F)ccc2n1 [Compound F3.14]
[1]
  inhibition of cancer cell proliferation: effectively inhibits
[2]
  binding to FRS2: confirmed the binding of F3.14 to FRS2
[3]
  potency: high
[4]
  intrinsic clearance: moderate
[5]
  tolerability: well-tolerated
[6]
  solubility: very good
[7]
  permeability: good
[8]
  inhibition of cancer cell invasion: effectively inhibits
[9]
  toxicities: very low
[10]
  effect on FGF signal transduction (phosphorylation of downstream effectors): inhibits the FGF signal transduction by inhibiting the phosphorylation of the downstream effectors
